Source: US20100204313A1, “Modulation of nerve pain activity by resiniferatoxin and uses thereof” (priority 2007, published 2010)
Entries after “also recorded” stand apart in the source; their conditions may differ.

Assays:
gastropancreatic nerves [1] = system: gastropancreatic nerves
Experimental: Capsaicin dose was 0.05 mg/0.3 ml in 40% ethanol for each group (n=8 rats/group).
Transient receptor potential vanilloid type-1 activation on the gastric side of gastropancreatic nerves can trigger axonal reflexes. Based on the known interaction between alcohol and transient receptor potential vanilloid type-1, it is possible that intragastric ethanol might also stimulate these nerves. […] At the same time, there was an intra-pancreatic canula in place and recording electrodes positioned around nerve fibers in the greater splanchnic nerve that were responsive to mechanical stimulation of the pancreas. Five minutes after intragastric ethanol, capsaicin was infused into the pancreatic duct.

nocifensive behaviors = conditions: 20% ethanol 1.6 gm/kg 3 times a day for 3 days; current 2, 5 and 10 mA; vs saline TNBS rats; P<0.001
Experimental: Increasing amounts of electrical current were applied to the pancreas through a previously implanted electrode and the total number of nocifensive behaviors was recorded.
Control TNBS rats received an equal volume of normal saline. The next day the rats were tested for their behavioral response for pain by administering successive application of electrical current at 2, 5 and 10 mA for 5 minutes through a pair of electrodes implanted in the pancreas at the time of TNBS administration.

TRPV1 [2] = molecular target: T1, TRPV1 (Rattus norvegicus, UniProt O35433); conditions: in vitro, cited from earlier work
TRPV1 [3] = conditions: various tissues, capsazepine-sensitive; cited from earlier work
guinea pig bronchi = conditions: ex-vivo; sensitive to TRPV1 and tachykinin receptor blockade; cited from earlier work
guinea pig airways = conditions: intravenous 221 mg/kg or intragastric 790 mg/kg; capsazepine-sensitive; cited from earlier work
TRPV1 [4] = molecular target: T2, TRPV1 (Mus musculus, UniProt Q704Y3); conditions: mice, cited from earlier work
T2 construct: capsazepine, a selective TRPV1 antagonist, can reduce cerulein-induced pancreatitis in mice; host or cells: living mice, cerulein-induced pancreatitis

TRPV1 [5] = molecular target: T1, TRPV1; set-up: host or cells: living rats (sensory neurons), TNBS chronic pancreatitis model; conditions: systemic administration, chronic pancreatitis; cited from earlier work
gastropancreatic nerves [6] = assay: Afferent nerve signaling to colorectal distention after intragastric resiniferatoxin; type: in vivo; conditions: rat stomach, 4 hours after intragastric resiniferatoxin vs baseline
Experimental: The top row represents the baseline response. Note the near complete absence of responses 4 hours after intragastric resiniferatoxin.
Resiniferatoxin is the principal active ingredient in the classic drug Euphorbium, the air-dried latex (resin) of the cactus-like plant Euphorbia resinifera. It is an ultra-potent analog of capsaicin and local application causes desensitization without prior excitation of afferent nerves that lasts for several weeks (Neubert et al, 2003; Kissin et al, 2002; Xu et al, 1997; Craft et al, 1995; Avelino et al, 1999; Acs et al, 1997; Abdel-Salam et al, 1994).

gastric emptying = assay: Gastric emptying of solid foods after local instillation; type: in vivo, rat; conditions: 100 nM/kg, vs control
Experimental: These experiments were done in male rats. Resiniferatoxin was instilled at 100 nM/kg body weight, 0.6 microgm/ml, into either the stomach or jejunum. Controls received saline in the stomach. Five weeks later gastric emptying of solid foods was measured. […] The combination of faster emptying and anti-nauseant effect makes it a very appropriate treatment for gastroparesis.

afferent nerves = conditions: desensitization of afferent nerves; cited from earlier work
nociceptors = conditions: functional denervation of the pancreas; cited from earlier work
[7] = system: transient receptor potential vanilloid type-1 on gastric branches of dichotomous gastropancreatic nerves; assay: Pancreatic edema (water content) after intragastric infusion with pyloric ligation; type: in vivo; conditions: intragastric infusion of 1.2 ml of 1.6 μM after pyloric ligation; pancreas harvested 30 minutes later
Experimental: Capsaicin was infused into the stomach after pyloric ligation and 30 minutes later the pancreas was harvested and water content was measured.
Next, the functional correlate of this anatomical convergence was determined. It was hypothesized that intragastric capsaicin will activate transient receptor potential vanilloid type-1 on gastric branches of dichotomous gastropancreatic nerves and via an axonal reflex result in edema of the pancreas. After pyloric ligation, intragastric infusion of 1.2 ml of 1.6 μM capsaicin was followed 30 minutes later by harvesting of the pancreas and measurement of water content.

T1 sequence (O35433 whole entry): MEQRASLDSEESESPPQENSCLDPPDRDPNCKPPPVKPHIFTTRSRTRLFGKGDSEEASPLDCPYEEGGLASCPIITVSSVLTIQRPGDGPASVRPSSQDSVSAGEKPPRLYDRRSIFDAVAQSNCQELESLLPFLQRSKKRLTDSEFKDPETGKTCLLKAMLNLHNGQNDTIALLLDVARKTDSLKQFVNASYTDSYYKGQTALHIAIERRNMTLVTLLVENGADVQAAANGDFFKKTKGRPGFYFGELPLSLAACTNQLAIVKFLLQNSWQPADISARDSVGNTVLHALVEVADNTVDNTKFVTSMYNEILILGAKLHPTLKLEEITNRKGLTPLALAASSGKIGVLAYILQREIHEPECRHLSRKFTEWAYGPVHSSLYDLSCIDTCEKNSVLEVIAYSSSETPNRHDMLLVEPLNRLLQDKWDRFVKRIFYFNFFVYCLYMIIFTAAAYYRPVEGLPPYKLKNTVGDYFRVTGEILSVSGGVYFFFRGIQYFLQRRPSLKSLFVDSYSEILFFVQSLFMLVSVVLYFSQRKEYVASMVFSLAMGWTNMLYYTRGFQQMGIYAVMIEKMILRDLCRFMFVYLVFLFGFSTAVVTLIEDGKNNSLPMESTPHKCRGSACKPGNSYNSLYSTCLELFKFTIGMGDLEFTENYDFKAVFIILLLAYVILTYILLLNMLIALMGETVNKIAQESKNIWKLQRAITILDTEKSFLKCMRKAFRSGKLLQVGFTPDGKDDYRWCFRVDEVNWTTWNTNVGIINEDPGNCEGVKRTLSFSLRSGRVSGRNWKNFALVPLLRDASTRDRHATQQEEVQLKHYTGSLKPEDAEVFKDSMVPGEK
T2 sequence (Q704Y3 whole entry): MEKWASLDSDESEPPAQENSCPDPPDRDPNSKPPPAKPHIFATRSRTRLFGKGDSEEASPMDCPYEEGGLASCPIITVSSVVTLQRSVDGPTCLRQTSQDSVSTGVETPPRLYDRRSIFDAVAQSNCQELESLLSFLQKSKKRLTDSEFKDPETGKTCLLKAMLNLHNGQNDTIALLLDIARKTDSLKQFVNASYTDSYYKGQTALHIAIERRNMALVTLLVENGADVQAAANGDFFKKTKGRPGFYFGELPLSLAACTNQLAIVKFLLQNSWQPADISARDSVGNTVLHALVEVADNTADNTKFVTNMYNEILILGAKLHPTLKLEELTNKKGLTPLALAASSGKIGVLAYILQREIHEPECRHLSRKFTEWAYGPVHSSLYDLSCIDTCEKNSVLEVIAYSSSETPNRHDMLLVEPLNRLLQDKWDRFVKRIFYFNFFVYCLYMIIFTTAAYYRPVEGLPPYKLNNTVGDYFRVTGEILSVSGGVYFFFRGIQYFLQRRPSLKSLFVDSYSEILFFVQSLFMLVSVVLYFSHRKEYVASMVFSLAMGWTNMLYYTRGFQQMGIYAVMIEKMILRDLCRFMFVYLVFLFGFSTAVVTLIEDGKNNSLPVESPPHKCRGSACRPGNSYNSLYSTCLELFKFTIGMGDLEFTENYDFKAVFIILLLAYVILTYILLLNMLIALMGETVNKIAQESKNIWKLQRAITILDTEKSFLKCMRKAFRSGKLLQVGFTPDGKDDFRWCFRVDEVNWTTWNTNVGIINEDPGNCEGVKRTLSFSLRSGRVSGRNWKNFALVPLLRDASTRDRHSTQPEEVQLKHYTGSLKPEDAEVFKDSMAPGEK

SMILES: CCO [ethanol]
- multi-unit spike potentials after intra-pancreatic capsaicin (gastropancreatic nerves [1]; intragastric ethanol five minutes before capsaicin into pancreatic duct, vs intragastric saline, P<0.05, n=8 rats/group): significant increase
- gastropancreatic nerve activity, ethanol by itself (gastropancreatic nerves [1]; intragastric via orogastric lavage after pyloric ligation, before capsaicin): did not increase
- number of nocifensive behaviors (nocifensive behaviors): increased the number of nocifensive behaviors significantly
- TRPV1 stimulation, capsazepine-sensitive calcium response (TRPV1 [2]; trigeminal and dorsal root ganglia neurons): directly stimulate
- sensitization of dorsal root ganglia neurons to the effects of capsaicin (TRPV1 [2]): sensitize
- release of substance P (TRPV1 [3]): induce the release
- contractions of bronchi (guinea pig bronchi): caused contractions
- broncho-constriction (guinea pig airways): caused broncho-constriction
- plasma extravasation in the airways (guinea pig airways): increased plasma extravasation

SMILES: Oc1cc2c(cc1O)CN(C(=S)NCCc1ccc(Cl)cc1)CCC2 [capsazepine]
- NK1R endocytosis in acinar cells (surrogate marker for SP release) (TRPV1 [4]; cerulein-induced pancreatitis): reduction
- cerulein induced pancreatitis (TRPV1 [4]): attenuate

SMILES: COc1cccc(NC(=O)/C=C/c2ccc(Cl)cc2)c1 [SB-366791]
- pancreatic pain behavioral response (TRPV1 [5]): markedly reduced

SMILES: C=C(C)[C@]12C[C@@H](C)[C@@]34O[C@](Cc5ccccc5)(O[C@@H]1[C@@H]3C=C(COC(=O)Cc1ccc(O)c(OC)c1)C[C@]1(O)C(=O)C(C)=C[C@@H]41)O2 [resiniferatoxin]
- afferent nerve signaling to colorectal distention (gastropancreatic nerves [6]): near complete attenuation; also recorded: nearly complete attenuation
- percentage of gastric emptying after 3 hours (gastric emptying; instilled into the jejunum five weeks prior, P=0.04, n=4): significant increase
- percentage of gastric emptying after 3 hours (gastric emptying; instilled into the stomach five weeks prior, P=0.01, n=4 rats): significant increase
- potency relative to capsaicin (afferent nerves): 200 times
- acute experimental pancreatitis (nociceptors): significant attenuation

SMILES: COc1cc(CNC(=O)CCCC/C=C/C(C)C)ccc1O [capsaicin]
- pancreatic edema (water content) [7]: causes pancreatic edema
- acute experimental pancreatitis (nociceptors): significant attenuation
